Assay results taken from patent US9957264B2 (Merck Sharp & Dohme Corp., priority 2013, dated 2018).

Tests used:
[1] = biological target: JAK2 (recombinant purified GST-tagged catalytic domain) (Homo sapiens (Human), UniProt O60674); test: Jak Biochemical HTRF Assay (JAK2); conditions: [ATP] 8.5 μM
[2] = biological target: JAK1 (recombinant purified GST-tagged catalytic domain) (Homo sapiens (Human), UniProt P23458); test: Jak Biochemical HTRF Assay (JAK1); conditions: [ATP] 31.8 μM
Method in brief: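 HTRF format, biotinylated peptide substrate; ATP-initiated reaction 120 min RT; EDTA quench + streptavidin-Dylight 650/Eu-anti-pY20 detection, 60 min RT; signal = 665/615 ratio ×10,000; normalized % inhibition, 4-parameter fit → IC50.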

Chain of JAK2 (recombinant purified GST-tagged catalytic domain) (O60674 849-1124): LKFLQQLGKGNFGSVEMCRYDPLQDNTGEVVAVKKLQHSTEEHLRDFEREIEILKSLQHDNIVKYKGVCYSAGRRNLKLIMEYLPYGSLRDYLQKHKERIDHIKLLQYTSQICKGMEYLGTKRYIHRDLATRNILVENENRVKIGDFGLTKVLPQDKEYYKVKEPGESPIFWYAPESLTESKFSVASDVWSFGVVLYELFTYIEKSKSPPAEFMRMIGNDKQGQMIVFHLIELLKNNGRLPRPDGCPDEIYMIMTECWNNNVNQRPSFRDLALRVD
Chain of JAK1 (recombinant purified GST-tagged catalytic domain) (P23458 875-1153): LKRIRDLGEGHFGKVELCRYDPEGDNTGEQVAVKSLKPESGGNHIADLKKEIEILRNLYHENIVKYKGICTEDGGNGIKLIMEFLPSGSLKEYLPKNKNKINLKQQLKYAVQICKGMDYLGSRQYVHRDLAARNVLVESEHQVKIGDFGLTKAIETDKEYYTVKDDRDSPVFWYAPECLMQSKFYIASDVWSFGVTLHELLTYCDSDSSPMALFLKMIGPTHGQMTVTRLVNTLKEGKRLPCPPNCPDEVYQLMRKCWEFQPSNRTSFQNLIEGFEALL

**Q.** How did the IC50 [1] turn out when N#CC[C@@]1(n2nc(Nc3ccc4c(c3)CN(C3CCCC3)C4=O)c3c(=O)[nH]ccc32)CCCOC1 [Example 5-197, [(3S)-3-{3-[(2-cyclopentyl-1-oxo-2,3-dihydro-1H-isoindol-5-yl)amino]-4-oxo-4,5-dihydro-1H-pyrazolo[4,3-c]pyridin-1-yl}tetrahydro-2H-pyran-3-yl]acetonitrile] was run?
**A.** Its IC50 is 1130 pM.

**Q.** And the IC50 [2]?
**A.** Its IC50 is 130 pM.

**Q.** What does the source list for CC1(C)CCCC1S(=O)(=O)c1ccc(Nc2nn([C@]3(CC#N)CCCOC3)c3cc[nH]c(=O)c23)cc1 (stereo partly drawn) [Example 5-202, {(3S)-3-[3-({4-[(2,2-dimethylcyclopentyl)sulfonyl]phenyl}amino)-4-oxo-4,5-dihydro-1H-pyrazolo[4,3-c]pyridin-1-yl]tetrahydro-2H-pyran-3-yl}acetonitrile]?
**A.** IC50 [1]: 1200 pM; IC50 [2]: 390 pM

**Q.** With CC(C)(C)OC(=O)[C@@H]1CC[C@@](CC#N)(n2nc(Nc3ccc(S(=O)(=O)N4CCOCC4)cc3)c3c(=O)[nH]ccc32)CO1 [Example 5-203, (2S,5S)-tert-butyl 5-(cyanomethyl)-5-(3-((4-(morpholinosulfonyl)phenyl)amino)-4-oxo-4,5-dihydro-1H-pyrazolo[4,3-c]pyridin-1-yl)tetrahydro-2H-pyran-2-carboxylate] as the molecule, how does the IC50 [1] read?
**A.** Its IC50 is 270 pM.

**Q.** And the IC50 [2]?
**A.** The IC50 was 150 pM.

**Q.** For N#CC[C@@]1(n2nc(Nc3ccc(S(=O)(=O)N4CCOCC4)cc3)c3c(=O)[nH]ccc32)CCCOC1 [Example 5-204, [(3S)-3-(3-{[4-(morpholin-4-ylsulfonyl)phenyl]amino}-4-oxo-4,5-dihydro-1H-pyrazolo[4,3-c]pyridin-1-yl)tetrahydro-2H-pyran-3-yl]acetonitrile], which IC50 [1] is on record?
**A.** Its IC50 is 480 pM.

**Q.** And the IC50 [2]?
**A.** The IC50 was 290 pM.

**Q.** With CC(C)(C)OC(=O)[C@@H]1CC[C@@](CC#N)(n2nc(Nc3ccc4ncccc4c3)c3c(=O)[nH]ccc32)CO1 [Example 5-215, (2S,5S)-tert-butyl 5-(cyanomethyl)-5-(4-oxo-3-(quinolin-6-ylamino)-4,5-dihydro-1H-pyrazolo[4,3-c]pyridin-1-yl)tetrahydro-2H-pyran-2-carboxylate] as the molecule, how does the IC50 [1] read?
**A.** Its IC50 is 630 pM.

**Q.** And the IC50 [2]?
**A.** The IC50 was 70 pM.

**Q.** Which results are given for CC(C)(C)OC(=O)[C@@H]1CC[C@@](CC#N)(n2nc(Nc3ccc4nc(C#N)ccc4c3)c3c(=O)[nH]ccc32)CO1 [Example 5-216, (2S,5S)-tert-butyl 5-(cyanomethyl)-5-(3-((2-cyanoquinolin-6-yl)amino)-4-oxo-4,5-dihydro-1H-pyrazolo[4,3-c]pyridin-1-yl)tetrahydro-2H-pyran-2-carboxylate]?
**A.** IC50 [1]: 1160 pM; IC50 [2]: 140 pM

**Q.** What does the source list for Cc1ccc2cc(Nc3nn([C@]4(CC#N)CC[C@@H](C(=O)OC(C)(C)C)OC4)c4cc[nH]c(=O)c34)ccc2n1 [Example 5-217, (2S,5S)-tert-butyl 5-(cyanomethyl)-5-(3-((2-methylquinolin-6-yl)amino)-4-oxo-4,5-dihydro-1H-pyrazolo[4,3-c]pyridin-1-yl)tetrahydro-2H-pyran-2-carboxylate]?
**A.** IC50 [1]: 770 pM; IC50 [2]: 70 pM

**Q.** Which IC50 [1] does the source give for Cc1cc(C)n(-c2ccc(Nc3nn([C@]4(CC#N)CC[C@@H](C(=O)OC(C)(C)C)OC4)c4cc[nH]c(=O)c34)cc2)n1 [Example 5-218, (2S,5S)-tert-butyl 5-(cyanomethyl)-5-(3-((4-(3,5-dimethyl-1H-pyrazol-1-yl)phenyl)amino)-4-oxo-4,5-dihydro-1H-pyrazolo[4,3-c]pyridin-1-yl)tetrahydro-2H-pyran-2-carboxylate] here?
**A.** The IC50 was 730 pM.

**Q.** And the IC50 [2]?
**A.** The IC50 was 160 pM.

**Q.** How did the IC50 [1] turn out when Cc1cc(Nc2nn([C@]3(CC#N)CC[C@@H](C(=O)OC(C)(C)C)OC3)c3cc[nH]c(=O)c23)ccc1-n1cccn1 [Example 5-219, (2S,5S)-tert-butyl 5-(cyanomethyl)-5-(3-((3-methyl-4-(1H-pyrazol-1-yl)phenyl)amino)-4-oxo-4,5-dihydro-1H-pyrazolo [4,3-c]pyridin-1-yl) tetrahydro-2H-pyran-2-carboxylate] was run?
**A.** Its IC50 is 1360 pM.

**Q.** And the IC50 [2]?
**A.** Its IC50 is 130 pM.

**Q.** With Cc1cc(Nc2nn([C@]3(CC#N)CC[C@@H](C(=O)OC(C)(C)C)OC3)c3cc[nH]c(=O)c23)ccc1C(=O)N1CCOC(C)(C)C1 [Example 5-220, (2S,5S)-tert-butyl 5-(cyanomethyl)-5-(3-((4-(2,2-dimethylmorpholine-4-carbonyl)-3-methylphenyl)amino)-4-oxo-4,5-dihydro-1H-pyrazolo[4,3-c]pyridin-1-yl)tetrahydro-2H-pyran-2-carboxylate] as the molecule, how does the IC50 [1] read?
**A.** The IC50 was 190 pM.

**Q.** What about the IC50 [2] of the same molecule?
**A.** The IC50 was 140 pM.

**Q.** Which results are given for CC(C)(C)OC(=O)[C@@H]1CC[C@@](CC#N)(n2nc(Nc3cnc4ccccc4c3)c3c(=O)[nH]ccc32)CO1 [Example 5-221, (2S,5S)-tert-butyl 5-(cyanomethyl)-5-(4-oxo-3-(quinolin-3-ylamino)-4,5-dihydro-1H-pyrazolo[4,3-c]pyridin-1-yl)tetrahydro-2H-pyran-2-carboxylate]?
**A.** IC50 [1]: 5290 pM; IC50 [2]: 350 pM

**Q.** What does the source list for CN(C)c1ccc2cc(Nc3nn([C@]4(CC#N)CC[C@@H](C(=O)OC(C)(C)C)OC4)c4cc[nH]c(=O)c34)ccc2n1 [Example 5-222, (2S,5S)-tert-butyl 5-(cyanomethyl)-5-(3-((2-(dimethylamino)quinolin-6-yl)amino)-4-oxo-4,5-dihydro-1H-pyrazolo[4,3-c]pyridin-1-yl)tetrahydro-2H-pyran-2-carboxylate]?
**A.** IC50 [1]: 640 pM; IC50 [2]: 130 pM

**Q.** Which results are given for CC(C)(C)OC(=O)[C@@H]1CC[C@@](CC#N)(n2nc(Nc3ccc4nc(C(N)=O)ccc4c3)c3c(=O)[nH]ccc32)CO1 [Example 5-223, (2S,5S)-tert-butyl 5-(3-((2-carbamoylquinolin-6-yl)amino)-4-oxo-4,5-dihydro-1H-pyrazolo[4,3-c]pyridin-1-yl)-5-(cyanomethyl)tetrahydro-2H-pyran-2-carboxylate]?
**A.** IC50 [1]: 820 pM; IC50 [2]: 70 pM

**Q.** Which results are given for N#CC[C@@]1(n2nc(Nc3ccc(C4(C(F)(F)F)CC4)cc3)c3c(=O)[nH]ccc32)CCCOC1 [Example 5-224, (S)-2-(3-(4-oxo-3-((4-(1-(trifluoromethyl)cyclopropyl)phenyl)amino)-4,5-dihydro-1H-pyrazolo[4,3-c]pyridin-1-yl)tetrahydro-2H-pyran-3-yl)acetonitrile]?
**A.** IC50 [1]: 3000 pM; IC50 [2]: 360 pM

**Q.** Which results are given for CN(C)c1ccc2cc(Nc3nn([C@]4(CC#N)CCCOC4)c4cc[nH]c(=O)c34)ccc2n1 [Example 5-225, (S)-2-(3-(3-((2-(dimethylamino)quinolin-6-yl)amino)-4-oxo-4,5-dihydro-1H-pyrazolo[4,3-c]pyridin-1-yl)tetrahydro-2H-pyran-3-yl)acetonitrile]?
**A.** IC50 [1]: 2300 pM; IC50 [2]: 150 pM

**Q.** Which results are given for Cc1ccc2cc(Nc3nn([C@]4(CC#N)CCCOC4)c4cc[nH]c(=O)c34)ccc2n1 [Example 5-226, (S)-2-(3-(3-((2-methylquinolin-6-yl)amino)-4-oxo-4,5-dihydro-1H-pyrazolo [4,3-c]pyridin-1-yl)tetrahydro-2H-pyran-3-yl)acetonitrile]?
**A.** IC50 [1]: 2940 pM; IC50 [2]: 110 pM

**Q.** C[C@H]1CN(c2ccc3cc(Nc4nn([C@]5(CC#N)CC[C@@H](C(=O)OC(C)(C)C)OC5)c5cc[nH]c(=O)c45)ccc3n2)CCO1 [Example 5-228, (2S,5S)-tert-butyl 5-(cyanomethyl)-5-(3-((2-((S)-2-methylmorpholino)quinolin-6-yl)amino)-4-oxo-4,5-dihydro-1H-pyrazolo[4,3-c]pyridin-1-yl)tetrahydro-2H-pyran-2-carboxylate] was tested. Which IC50 [1] did it give?
**A.** The IC50 was 1060 pM.

**Q.** And the IC50 [2]?
**A.** The IC50 was 250 pM.

**Q.** CC(C)(C)OC(=O)[C@@H]1CC[C@@](CC#N)(n2nc(Nc3ccc4nc(N5CC6CCC(C5)O6)ccc4c3)c3c(=O)[nH]ccc32)CO1 [Example 5-229, (2S,5S)-tert-butyl 5-(3-((2-(8-oxa-3-azabicyclo[3.2.1]octan-3-yl)quinolin-6-yl)amino)-4-oxo-4,5-dihydro-1H-pyrazolo[4,3-c]pyridin-1-yl)-5-(cyanomethyl) tetrahydro-2H-pyran-2-carboxylate] was tested. Which IC50 [1] did it give?
**A.** The IC50 was 1390 pM.

**Q.** What about the IC50 [2] of the same molecule?
**A.** The IC50 was 340 pM.

**Q.** For CC(C)(C)OC(=O)[C@@H]1CC[C@@](CC#N)(n2nc(Nc3ccc(S(=O)(=O)C(C)(C)C)cc3)c3c(=O)[nH]ccc32)CO1 [Example 5-235, (2S,5S)-tert-butyl 5-(3-((4-(tert-butylsulfonyl)phenyl)amino)-4-oxo-4,5-dihydro-1H-pyrazolo[4,3-c]pyridin-1-yl)-5-(cyanomethyl) tetrahydro-2H-pyran-2-carboxylate], which IC50 [1] is on record?
**A.** Its IC50 is 210 pM.

**Q.** What about the IC50 [2] of the same molecule?
**A.** Its IC50 is 140 pM.

**Q.** What does the source list for CC(C)(C)OC(=O)[C@@H]1CC[C@@](CC#N)(n2nc(Nc3ccc(S(=O)(=O)C4CC4)cc3)c3c(=O)[nH]ccc32)CO1 [Example 5-236, (2S,5S)-tert-butyl 5-(cyanomethyl)-5-(3-((4-(cyclopropylsulfonyl)phenyl)amino)-4-oxo-4,5-dihydro-1H-pyrazolo[4,3-c]pyridin-1-yl)tetrahydro-2H-pyran-2-carboxylate]?
**A.** IC50 [1]: 250 pM; IC50 [2]: 120 pM

**Q.** How did the IC50 [1] turn out when CC(C)S(=O)(=O)c1ccc(Nc2nn([C@]3(CC#N)CC[C@@H](C(=O)OC(C)(C)C)OC3)c3cc[nH]c(=O)c23)cc1 [Example 5-237, (2S,5S)-tert-butyl 5-(cyanomethyl)-5-(3-((4-(isopropylsulfonyl)phenyl)amino)-4-oxo-4,5-dihydro-1H-pyrazolo[4,3-c]pyridin-1-yl)tetrahydro-2H-pyran-2-carboxylate] was run?
**A.** Its IC50 is 280 pM.

**Q.** And the IC50 [2]?
**A.** The IC50 was 150 pM.

**Q.** For CN(C)C(=O)c1ccc2cc(Nc3nn([C@]4(CC#N)CC[C@@H](C(=O)OC(C)(C)C)OC4)c4cc[nH]c(=O)c34)ccc2n1 [Example 5-238, (2S,5S)-tert-butyl 5-(cyanomethyl)-5-(3-((2-(dimethylcarbamoyl)quinolin-6-yl)amino)-4-oxo-4,5-dihydro-1H-pyrazolo[4,3-c]pyridin-1-yl)tetrahydro-2H-pyran-2-carboxylate], which IC50 [1] is on record?
**A.** The IC50 was 480 pM.

**Q.** And the IC50 [2]?
**A.** Its IC50 is 110 pM.

**Q.** Which IC50 [1] does the source give for CC(C)(C)N1Cc2cc(Nc3nn(C4(CC#N)CCOCC4)c4cc[nH]c(=O)c34)ccc2S1(=O)=O [Example 5-251, 2-(4-(3-((2-(tert-butyl)-1,1-dioxido-2,3-dihydrobenzo[d]isothiazol-5-yl)amino)-4-oxo-4,5-dihydro-1H-pyrazolo[4,3-c]pyridin-1-yl)tetrahydro-2H-pyran-4-yl)acetonitrile] here?
**A.** The IC50 was 780 pM.

**Q.** What about the IC50 [2] of the same molecule?
**A.** Its IC50 is 60 pM.
